{"source": "ChEMBL document CHEMBL5360570", "about": "“Discovery of pyrazolo[3,4-b]pyridine derivatives as novel and potent Mps1 inhibitors for the treatment of cancer” (Eur J Med Chem, 2023)", "key": {"[1]": {"molecular_target": "MAP/microtubule affinity-regulating kinase 4 (Homo sapiens) (UniProt Q96L34)", "sequence (Q96L34 whole entry)": "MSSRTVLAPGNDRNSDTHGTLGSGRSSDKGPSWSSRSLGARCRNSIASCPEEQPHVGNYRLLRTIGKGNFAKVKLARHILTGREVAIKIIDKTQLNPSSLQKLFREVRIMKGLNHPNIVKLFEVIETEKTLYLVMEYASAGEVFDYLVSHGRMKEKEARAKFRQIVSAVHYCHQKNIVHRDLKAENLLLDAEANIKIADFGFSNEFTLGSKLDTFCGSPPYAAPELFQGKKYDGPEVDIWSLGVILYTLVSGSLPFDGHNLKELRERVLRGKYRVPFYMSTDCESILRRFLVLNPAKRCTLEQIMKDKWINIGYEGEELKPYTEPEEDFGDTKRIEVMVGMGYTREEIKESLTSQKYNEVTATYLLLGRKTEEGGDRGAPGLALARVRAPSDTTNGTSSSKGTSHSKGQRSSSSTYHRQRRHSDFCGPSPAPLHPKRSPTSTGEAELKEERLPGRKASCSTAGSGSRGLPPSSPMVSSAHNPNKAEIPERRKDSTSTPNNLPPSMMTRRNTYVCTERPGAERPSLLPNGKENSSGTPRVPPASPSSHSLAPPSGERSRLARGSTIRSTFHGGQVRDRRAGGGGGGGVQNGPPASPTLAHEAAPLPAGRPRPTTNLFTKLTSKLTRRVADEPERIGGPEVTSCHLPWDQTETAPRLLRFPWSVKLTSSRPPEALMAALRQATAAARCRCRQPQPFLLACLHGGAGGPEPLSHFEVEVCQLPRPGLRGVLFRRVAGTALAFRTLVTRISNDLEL", "assay": "Inhibition of MARK4 (unknown origin) assessed as residual activity at 1 uM relative to control"}, "[2]": {"molecular_target": "Non-receptor tyrosine-protein kinase TNK1 (Homo sapiens) (UniProt Q13470)", "assay": "Inhibition of TNK1 (unknown origin) assessed as residual activity at 1 uM relative to control"}, "[3]": {"assay": "Clearance in Sprague-Dawley rat at 2 mg/kg, iv measured upto 24 hrs by LC-MS/MS analysis", "format": "ADME, organism-based", "details": "in vivo"}, "[4]": {"molecular_target": "Tyrosine-protein kinase FRK (Homo sapiens) (UniProt P42685)", "assay": "Inhibition of PTK5 (unknown origin) assessed as residual activity at 1 uM relative to control"}, "[5]": {"tested_on": "ALK tyrosine kinase receptor (Homo sapiens), Q9UM73 [S1206R]", "sequence (Q9UM73 whole entry S1206R)": "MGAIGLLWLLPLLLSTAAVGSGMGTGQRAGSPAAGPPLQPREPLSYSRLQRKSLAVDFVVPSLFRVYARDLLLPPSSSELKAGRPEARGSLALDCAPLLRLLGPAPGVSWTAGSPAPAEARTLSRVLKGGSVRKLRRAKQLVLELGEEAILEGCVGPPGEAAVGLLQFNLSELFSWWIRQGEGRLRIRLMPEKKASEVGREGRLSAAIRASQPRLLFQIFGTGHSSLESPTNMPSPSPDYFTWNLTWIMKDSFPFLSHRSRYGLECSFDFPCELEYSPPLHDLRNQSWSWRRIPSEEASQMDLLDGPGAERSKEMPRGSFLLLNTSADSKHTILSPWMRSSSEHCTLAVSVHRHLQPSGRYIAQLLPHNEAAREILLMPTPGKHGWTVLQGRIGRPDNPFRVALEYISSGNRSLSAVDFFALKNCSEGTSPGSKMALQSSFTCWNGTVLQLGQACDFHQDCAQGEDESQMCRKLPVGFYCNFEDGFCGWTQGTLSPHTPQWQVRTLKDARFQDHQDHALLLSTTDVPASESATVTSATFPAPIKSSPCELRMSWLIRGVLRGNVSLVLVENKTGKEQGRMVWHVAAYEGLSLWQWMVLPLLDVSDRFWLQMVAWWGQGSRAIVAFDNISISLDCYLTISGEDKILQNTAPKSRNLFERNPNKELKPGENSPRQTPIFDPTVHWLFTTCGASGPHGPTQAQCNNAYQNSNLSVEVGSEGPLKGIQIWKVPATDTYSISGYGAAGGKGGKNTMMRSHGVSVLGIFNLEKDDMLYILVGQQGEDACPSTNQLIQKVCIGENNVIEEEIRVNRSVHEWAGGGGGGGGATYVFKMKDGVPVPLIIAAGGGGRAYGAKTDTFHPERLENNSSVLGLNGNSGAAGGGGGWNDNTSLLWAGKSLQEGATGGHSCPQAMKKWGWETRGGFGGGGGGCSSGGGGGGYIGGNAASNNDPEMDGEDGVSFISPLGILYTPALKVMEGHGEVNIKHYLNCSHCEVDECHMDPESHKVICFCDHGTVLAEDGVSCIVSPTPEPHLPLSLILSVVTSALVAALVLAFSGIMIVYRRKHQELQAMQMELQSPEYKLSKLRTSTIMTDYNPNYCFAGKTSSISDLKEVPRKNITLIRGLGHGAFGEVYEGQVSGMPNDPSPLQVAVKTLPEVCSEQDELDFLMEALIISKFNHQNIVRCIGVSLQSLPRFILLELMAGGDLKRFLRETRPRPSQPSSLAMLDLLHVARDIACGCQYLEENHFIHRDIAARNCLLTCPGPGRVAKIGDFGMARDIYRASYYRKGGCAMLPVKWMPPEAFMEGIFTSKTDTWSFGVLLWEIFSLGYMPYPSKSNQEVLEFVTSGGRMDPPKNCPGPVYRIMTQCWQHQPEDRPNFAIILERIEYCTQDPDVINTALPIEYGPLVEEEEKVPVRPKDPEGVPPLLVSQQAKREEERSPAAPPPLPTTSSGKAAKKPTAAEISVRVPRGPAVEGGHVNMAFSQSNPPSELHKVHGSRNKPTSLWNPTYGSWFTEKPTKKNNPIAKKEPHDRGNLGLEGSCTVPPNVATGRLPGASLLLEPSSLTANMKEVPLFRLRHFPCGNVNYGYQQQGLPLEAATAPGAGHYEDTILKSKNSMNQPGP", "assay": "Inhibition of ALK S1206R mutant (unknown origin) assessed as residual activity at 1 uM relative to control"}, "[6]": {"assay": "MRT (0 to infinity) in Sprague-Dawley rat at 10 mg/kg, po measured upto 24 hrs by LC-MS/MS analysis", "format": "ADME, organism-based", "details": "in vivo"}, "[7]": {"molecular_target": "Serine/threonine-protein kinase MARK1 (Homo sapiens) (UniProt Q9P0L2)", "assay": "Inhibition of MARK1 (unknown origin) assessed as residual activity at 1 uM relative to control"}, "[8]": {"assay": "Antiproliferative activity against human RBE cells assessed inhibition of cell growth incubated for 72 hrs by CCK-8 assay", "format": "functional, cell-based"}, "[9]": {"tested_on": "Fibroblast growth factor receptor 2 (Homo sapiens), P21802 [K526E]", "assay": "Inhibition of FGFR2 K526E mutant (unknown origin) assessed as residual activity at 1 uM relative to control"}, "[10]": {"tested_on": "ALK tyrosine kinase receptor (Homo sapiens), Q9UM73 [F1174L]", "sequence (Q9UM73 whole entry F1174L)": "as the sequence (Q9UM73 whole entry S1206R) above, with F1174L, R1206S counted along it", "assay": "Inhibition of ALK F1174L mutant (unknown origin) assessed as residual activity at 1 uM relative to control"}, "ALK-TPM1 (Homo sapiens)": {"molecular_target": "ALK-TPM1 (Homo sapiens) (UniProt Q9UM73+P09493)", "sequence (P09493 whole entry, looked up)": "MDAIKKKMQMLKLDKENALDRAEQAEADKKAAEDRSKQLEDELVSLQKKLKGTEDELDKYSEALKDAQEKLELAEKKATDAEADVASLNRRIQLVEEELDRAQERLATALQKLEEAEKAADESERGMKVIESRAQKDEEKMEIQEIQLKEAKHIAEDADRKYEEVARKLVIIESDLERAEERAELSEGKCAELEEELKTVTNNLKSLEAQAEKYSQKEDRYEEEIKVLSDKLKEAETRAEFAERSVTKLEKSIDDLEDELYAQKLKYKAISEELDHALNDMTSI", "sequence (Q9UM73 whole entry, looked up)": "as the sequence (Q9UM73 whole entry S1206R) above, with R1206S counted along it", "assay": "Inhibition of ALK-TPM1 (unknown origin) assessed as residual activity at 1 uM relative to control", "format": "protein assay"}, "MDA-MB-468 [11]": {"tested_on": "MDA-MB-468", "assay": "Antitumor activity against human MDA-MB-468 cells xenografted in BALB/c nude mouse assessed as tumor growth inhibition at 30 mg/kg, iv administered once daily for 21 days", "format": "functional", "details": "MDA-MB-468, 504 h, time 21 day, read-out: TGI"}, "[12]": {"assay": "Half life in Sprague-Dawley rat at 10 mg/kg, po measured upto 24 hrs by LC-MS/MS analysis", "format": "ADME, organism-based", "details": "in vivo"}, "[13]": {"molecular_target": "Leukocyte tyrosine kinase receptor (Homo sapiens) (UniProt P29376)", "assay": "Inhibition of TYK1 (unknown origin) assessed as residual activity at 1 uM relative to control"}, "ROS1-GOPC (Homo sapiens)": {"molecular_target": "ROS1-GOPC (Homo sapiens) (UniProt P08922+Q9HD26)", "sequence (P08922 whole entry, looked up, other chains not shown)": "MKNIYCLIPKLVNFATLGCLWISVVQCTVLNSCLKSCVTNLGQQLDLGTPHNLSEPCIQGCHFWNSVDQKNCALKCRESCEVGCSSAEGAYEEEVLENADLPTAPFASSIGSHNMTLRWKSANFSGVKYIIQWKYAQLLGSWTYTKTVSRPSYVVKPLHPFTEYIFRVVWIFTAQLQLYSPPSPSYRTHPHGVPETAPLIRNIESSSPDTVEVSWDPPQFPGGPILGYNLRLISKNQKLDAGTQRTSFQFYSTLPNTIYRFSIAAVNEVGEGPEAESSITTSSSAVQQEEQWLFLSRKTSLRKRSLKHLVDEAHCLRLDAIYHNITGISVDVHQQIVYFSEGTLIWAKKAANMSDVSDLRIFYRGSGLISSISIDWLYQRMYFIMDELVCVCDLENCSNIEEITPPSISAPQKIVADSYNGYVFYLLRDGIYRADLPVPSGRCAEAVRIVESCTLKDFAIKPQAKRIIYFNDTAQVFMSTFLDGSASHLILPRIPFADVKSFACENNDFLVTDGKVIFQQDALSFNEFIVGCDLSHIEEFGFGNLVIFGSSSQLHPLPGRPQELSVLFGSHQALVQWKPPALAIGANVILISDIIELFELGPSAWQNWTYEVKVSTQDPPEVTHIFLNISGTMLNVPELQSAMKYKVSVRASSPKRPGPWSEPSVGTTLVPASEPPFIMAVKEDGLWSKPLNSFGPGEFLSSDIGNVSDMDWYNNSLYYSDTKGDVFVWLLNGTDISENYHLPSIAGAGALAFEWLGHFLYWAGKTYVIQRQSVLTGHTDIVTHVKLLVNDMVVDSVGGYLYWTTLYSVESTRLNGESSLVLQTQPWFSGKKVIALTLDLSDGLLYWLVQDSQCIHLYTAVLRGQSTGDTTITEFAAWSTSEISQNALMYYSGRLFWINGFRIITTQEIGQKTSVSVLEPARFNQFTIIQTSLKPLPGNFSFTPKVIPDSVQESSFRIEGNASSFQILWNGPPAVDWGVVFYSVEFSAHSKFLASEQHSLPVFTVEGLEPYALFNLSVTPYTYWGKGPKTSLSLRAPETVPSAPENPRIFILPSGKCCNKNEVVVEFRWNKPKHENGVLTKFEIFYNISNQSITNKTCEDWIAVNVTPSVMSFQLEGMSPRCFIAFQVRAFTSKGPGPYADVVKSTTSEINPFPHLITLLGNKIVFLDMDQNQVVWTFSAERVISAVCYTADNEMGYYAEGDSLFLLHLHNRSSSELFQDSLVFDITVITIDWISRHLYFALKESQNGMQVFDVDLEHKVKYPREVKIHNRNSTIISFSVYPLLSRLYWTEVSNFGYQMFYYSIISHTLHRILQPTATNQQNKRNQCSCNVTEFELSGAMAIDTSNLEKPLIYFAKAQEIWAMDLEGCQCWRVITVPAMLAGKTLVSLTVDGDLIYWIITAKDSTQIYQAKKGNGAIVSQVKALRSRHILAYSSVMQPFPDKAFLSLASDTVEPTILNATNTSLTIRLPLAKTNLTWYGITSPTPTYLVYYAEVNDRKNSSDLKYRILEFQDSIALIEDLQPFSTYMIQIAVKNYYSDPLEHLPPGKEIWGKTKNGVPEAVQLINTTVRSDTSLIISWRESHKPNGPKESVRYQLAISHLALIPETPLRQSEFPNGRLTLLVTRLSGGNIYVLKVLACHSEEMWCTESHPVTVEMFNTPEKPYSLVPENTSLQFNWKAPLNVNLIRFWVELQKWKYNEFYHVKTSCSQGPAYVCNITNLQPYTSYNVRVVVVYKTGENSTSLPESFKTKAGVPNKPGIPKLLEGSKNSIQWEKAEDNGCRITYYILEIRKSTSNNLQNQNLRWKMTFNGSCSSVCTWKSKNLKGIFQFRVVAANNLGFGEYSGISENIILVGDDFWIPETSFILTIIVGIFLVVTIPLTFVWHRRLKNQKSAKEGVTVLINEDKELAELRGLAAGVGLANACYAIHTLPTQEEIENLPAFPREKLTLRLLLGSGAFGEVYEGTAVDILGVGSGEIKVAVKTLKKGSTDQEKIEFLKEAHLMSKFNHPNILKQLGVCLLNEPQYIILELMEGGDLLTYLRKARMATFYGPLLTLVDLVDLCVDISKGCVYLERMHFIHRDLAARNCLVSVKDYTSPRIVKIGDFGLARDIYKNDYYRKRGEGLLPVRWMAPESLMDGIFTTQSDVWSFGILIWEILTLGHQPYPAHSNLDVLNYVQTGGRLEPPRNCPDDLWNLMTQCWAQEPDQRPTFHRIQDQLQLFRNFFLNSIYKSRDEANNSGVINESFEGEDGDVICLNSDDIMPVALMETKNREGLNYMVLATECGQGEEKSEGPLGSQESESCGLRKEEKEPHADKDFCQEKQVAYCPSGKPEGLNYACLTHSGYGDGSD", "assay": "Inhibition of ROS1-GOPC (unknown origin) assessed as residual activity at 1 uM relative to control", "format": "protein assay"}, "[14]": {"molecular_target": "LIM domain kinase 1 (Homo sapiens) (UniProt P53667)", "assay": "Inhibition of LIMK1 (unknown origin) assessed as residual activity at 1 uM relative to control"}, "MDA-MB-468 [15]": {"tested_on": "MDA-MB-468", "assay": "Antitumor activity against human MDA-MB-468 cells xenografted in BALB/c nude mouse assessed as tumor growth inhibition at 60 mg/kg, po administered once daily for 21 days", "format": "functional", "details": "MDA-MB-468, 504 h, time 21 day, read-out: TGI"}, "[16]": {"assay": "Metabolic stability in human microsome assessed as intrinsic clearance preincubated for 10 mins followed by NADPH addition and measured upto 60 mins by LC-MS/MS analysis", "format": "ADME", "details": "microsomes, time < 70 min"}, "[17]": {"tested_on": "ALK tyrosine kinase receptor (Homo sapiens), Q9UM73 [L1152R]", "sequence (Q9UM73 whole entry L1152R)": "as the sequence (Q9UM73 whole entry S1206R) above, with L1152R, R1206S counted along it", "assay": "Inhibition of ALK L1152R mutant (unknown origin) assessed as residual activity at 1 uM relative to control"}}, "data": [{"compound": "CCc1cccc(CC)c1N1CCn2cc(-c3nc(Nc4ccc(N5CCN(C(C)=O)CC5)cc4OC)nc4[nH]ncc34)cc2C1=O", "values": [{"measurement": "Activity", "setting": "[1]", "result": "< 10", "unit": "%"}, {"measurement": "Activity", "setting": "[2]", "result": "< 10", "unit": "%"}, {"measurement": "clearance", "setting": "[3]", "result": 32, "unit": "mL/min/kg"}, {"measurement": "Activity", "setting": "[4]", "result": "< 10", "unit": "%"}, {"measurement": "Activity", "setting": "[5]", "result": "< 10", "unit": "%"}, {"measurement": "MRT inf", "setting": "[6]", "result": 1.23, "unit": "h"}, {"measurement": "Activity", "setting": "[7]", "result": "< 10", "unit": "%"}, {"measurement": "IC50", "setting": "[8]", "result": "> 10", "unit": "µM"}, {"measurement": "Activity", "setting": "[9]", "result": "< 10", "unit": "%"}, {"measurement": "Activity", "setting": "[10]", "result": "< 10", "unit": "%"}, {"measurement": "Activity", "setting": "ALK-TPM1 (Homo sapiens)", "result": "< 10", "unit": "%"}, {"measurement": "inhibition in vivo at 30 mg/kg", "setting": "MDA-MB-468 [11]", "result": 21, "unit": "%"}, {"measurement": "half-life", "setting": "[12]", "result": 1.05, "unit": "h"}, {"measurement": "Activity", "setting": "[13]", "result": "< 10", "unit": "%"}, {"measurement": "Activity", "setting": "ROS1-GOPC (Homo sapiens)", "result": "< 10", "unit": "%"}, {"measurement": "Activity", "setting": "[14]", "result": "< 10", "unit": "%"}, {"measurement": "inhibition in vivo at 60 mg/kg", "setting": "MDA-MB-468 [15]", "result": 34, "unit": "%"}, {"measurement": "microsomal CLint", "setting": "[16]", "result": 39.4, "unit": "µL/min/mg"}, {"measurement": "Activity", "setting": "[17]", "result": "< 10", "unit": "%"}]}]}
